Measurements taken from PMC13144739, “Global analysis of cancer cell responses to USP9X inhibition” (The EMBO Journal, 2026).

What was measured:
Assay type in all cases: cell-based, human
[1] = system: CEP55; assay: CEP55 degradation by Western Blot in MDA-MB-231 cells
Description: The next day, cells were lysed in DISC lysis buffer (20 mM TRIS/HCl [pH 7.5], 150 mM NaCl, 2 mM EDTA [pH 8.0], 1% [v/v] Triton X 100, 10% [v/v] glycerol) supplemented with 2% (w/v) SDS and PhosSTOP tablets (Roche). To shred DNA, DISC lysates were run through polypropylene columns (Pierce). […] Next, membranes were washed twice in TBS-T and incubated with primary antibodies at 4 °C o/n. Primary antibodies were diluted in antibody dilution buffer (5% [w/v] BSA [pH 5.2, Sigma-Aldrich] in TBS-T with 0.04% [v/v] sodium azide) as per the manufacturer’s instructions. […] Next, membranes were washed four times for 5 min each in TBS-T. Membranes were developed in ECL (Bio-Rad) and imaged using the ChemiDoc imaging system (Bio-Rad). Images were processed using Image Lab software.
Appendix Fig S4. WEHI-092 phenotypes across cell lines.
(A) IC50 of USP9X inhibitors in MDA-MB-231 cells measured via degradation of the USP9X substrate CEP55 by Western Blot. The compounds were incubated with cells for […]
biological repeats. Error bars, s.e.m. (B) Western Blot analysis of USP9X expression levels across a subset of cell lines used in this study. Representative blot from two independent biological repeats is shown with Actin as a sample loading control. l.p. - low passage; h.p. - high passage. […]
Right, quantification of images plotted as dose-dependent colony area. […]

[2] = system: UO-31 cells; assay: Colony formation assay, UO-31; conditions: 10 µM, 7–12 days
Description: (§1) Cells were seeded at low density (200–4000 cells per well) after initial optimisation in a six-well tissue culture-treated plate (Falcon). Twenty-four hours post seeding, media was replaced, and the inhibitor was added. Cells were left to grow into colonies between 7 and 12 days, depending on the cell line. For analysis, the media was removed, and the cells were fixed with 10% (w/v) formalin for 10 min. Colonies were stained with crystal violet (Sigma-Aldrich, 0.5% [w/v] in 20% [v/v] MeOH) for 10 min and washed thrice with distilled H2O. Plates were imaged using the ChemiDoc imaging system (Bio-Rad) and analysed using the ImageJ ColonyArea plugin as described previously (Guzmán et al, [2014]).

[3] = system: MDA-MB-231 cells; assay: Colony formation assay, MDA-MB-231; conditions: 10 µM, 7–12 days
Description: as §1

[4] = system: ACHN cells; assay: Colony formation assay, ACHN; conditions: 10 µM, 7–12 days
Description: as §1

[5] = system: UO-31 cells; assay: Lattice light sheet imaging, UO-31; conditions: 15 µM, imaged 24-48 h
Description: MDA-MB-231, MiaPaca2, HMEC-1, SK-MEL-2 and UO-31 cells were seeded at 2–15 × 10^4 cells/mL in 8-well glass µ-slides (ibidi). […] SPY650-Tubulin, SPY555-DNA (both Spirochrome, Inc.), and Annexin V FITC (Sigma-Aldrich) were added at a final concentration of 1 in 1000. Cells were left to grow for 24 h before time-lapse live-cell data were acquired using a Lattice Light Sheet 7 (Zeiss). […] Aberration correction was set to a value of 170 to minimise aberrations as determined by imaging the Point Spread Function using 100 nm fluorescent microspheres. Data were collected with a frame time of 10 ms and a z step of 0.4 μm with 834 frames per 290 μm by 290 μm. Individual regions were imaged in parallel across six wells of the eight-well chamber slide. Data are presented as Maximum Intensity Projections (MIPs), and these MIPs were used for all downstream analysis. Tile regions were imaged for 24 h with 10 min intervals at 37 °C, 5% CO2. Analysis was performed using the MIPs of the different full fields of cells over the 24–48 h time period. Mitosis and mitosis arrest were classified through a combination of automated image analysis and manual validation. […] Small erroneous detected spots were further removed through a manually adjusted size filter. […] The mean intensity of all tracks was then measured to determine mitosis and mitosis arrest. […]

Cc1[nH]c2ccc(C(=O)N3CCN(S(=O)(=O)c4ccc5c(c4)OCCO5)CC3)cc2c1C [WEHI-092]
IC50 ([1]; Homo sapiens, MDA-MB-231 cells, 24 h, read-out: apparent IC50 (CEP55 destabilisation, based on Western blotting)): 1300 nM
CEP55 protein level ([1]; dose-dependent, Western blot): destabilised
clonogenic potential, UO-31 [2]: sensitive
clonogenic potential, MDA-MB-231 [3]: strong decrease in proliferative capacity
clonogenic potential, ACHN [4]: apparent increase in cell proliferation
arrested mitosis phenotype, UO-31 [5]: did not display the arrested mitosis phenotype
